The values that follow come from PMC6286365 (Scientific Reports, 2018).

One series has as its target alkaline phosphatase. The series is described as follows: Counter assay without nSMase2 and SM, phosphorylcholine as substrate (enzyme-coupled detection reactions). The following applies: no nSMase2, no SM; phosphorylcholine 2 μM as substrate. It is filed as biochemical.
The subject of the next series is GFAP-GFP mice. The series is described as follows: Striatal IL-1β brain inflammation model: neutrophil infiltration into brain (Ly6b immunohistochemistry). The series is classed as in vivo, mouse. The following applies: 10 mg/kg IP 0.5 h before and 12 h after IL-1β; 24 h. On the procedure:
As we have previously shown[11],[18], striatal injection of IL-1β in mice expressing GFP-GFAP in astroglia triggers a release of GFP-labelled EVs that rapidly enter into plasma, resulting in cytokine upregulation in liver and peripheral immune cell migration into brain[11]. […] There were two groups of mice: the first group was sacrificed 2 h after IL-1β administration by heart puncture, and GFP-labeled circulating EVs were measured with liver cytokines. […] Counting of astrocyte-released EV (GFP+) from blood and liver cytokine analysis was conducted by single injection of DPTIP. […]
Compounds were given 0.5 h before IL-1β dosing. […] (C) Liver cytokine levels under different treatments as measured by qRT-PCR of RNA isolated from fresh frozen liver tissue. Samples were analyzed in triplicate. **p < 0.01 and *p < 0.05 compared to saline control; ^##p < 0.01 and ^#p < 0.05 compared to IL1-β group. (D) Neutrophil levels in brain as measured by immunohistochemistry using coronal brain sections and Ly6b antibody. (E) Quantitation of (D); **p < 0.01 compared to saline control; ^##p < 0.01 compared to IL1-β group.
Coronal brain sections (30 µm) were prepared using a cryostat microtome (Leica). […] Stereological quantitation was performed using a one-in-five series (270-µm spacing), from the rostral point of bregma +1.10 mm to the caudal point of bregma −0.58 mm as previously described.

The nature of series [1]: Metabolic stability in mouse liver microsomes with NADPH. It is filed as in vitro ADME. The note with it: pH 7.4, 1 μM compound, read-out: percent remaining. As to the method: One potential liability when using chemical probes in vivo is lack of metabolic stability which structurally inactivates the compound before it can reach its molecular target. […] Percent of drug remaining over time was determined by liquid chromatography–tandem mass spectrometry analysis (LC/MS/MS).
Metabolic stability assay was conducted in mouse or human liver microsomes as we have described previously with minor modifications. Briefly, the reaction was carried out using potassium phosphate buffer (100 mM, pH 7.4), in the presence of an NADPH regenerating system (compound final concentration was 1 μM; 0.2 mg/mL microsomes). Compound disappearance was monitored over time using a liquid chromatography and tandem mass spectrometry (LC/MS/MS) method. Chromatographic analysis was performed using an Accela ultra high-performance system consisting of an analytical pump and an autosampler coupled with a TSQ Vantage mass spectrometer (Thermo Fisher Scientific Inc., Waltham, MA). […] The mobile phase consisted of 0.1% formic acid in acetonitrile and 0.1% formic acid in water with gradient elution.
Background: Liver microsomes are vesicles of endoplasmic reticulum, rich in cytochrome P450 enzymes.

As usually defined, the IC50 is the concentration that gives 50% inhibition. What is called amount remaining is the share of the starting amount still present when the sample was taken. Compound `COc1cc(-c2nc(-c3cccs3)c(-c3ccccc3)[nH]2)cc(OC)c1O` [DPTIP, 2,6-Dimethoxy-4-(5-Phenyl-4-Thiophen-2-yl-1H-Imidazol-2-yl)-Phenol] gave an IC50 at alkaline phosphatase of over 100 µM. Also, in the series on GFAP-GFP mice, the “reduction of neutrophil migration into brain compared to IL-1β-treated animals” value came to 80 ± 23%. Moreover, the share remaining at 1 h, 1 μM in series [1] amounted to 100%.
